Results from PMC6995525, “Structure of the PUB Domain from Ubiquitin Regulatory X Domain Protein 1 (UBXD1) and Its Interaction with the p97 AAA+ ATPase” (Biomolecules, 2019).

What was measured:
UBXD1-PUB = target: T1, UBXD1-PUB (Homo sapiens, UniProt Q9BZV1); experiment: 15N-HSQC NMR titration of 15N-labeled UBXD1-PUB with p97 peptides; type: binding; conditions: 50 mM NaKPi pH 6.5, 25 °C; for binding in 15N-HSQC NMR titration: phosphorylated p97-C13-pY805, 270 µM protein, up to 1.25 mM peptide, 1.2 mM or 1.1 mM (Figure S1)
T1 construct: N-terminal hexahistidine-tagged UBXD1-PUB (150–264) was cloned into a pET28a expression vector; hexahistidine (His6) (N); made in house
T1 sequence (Q9BZV1 150-264): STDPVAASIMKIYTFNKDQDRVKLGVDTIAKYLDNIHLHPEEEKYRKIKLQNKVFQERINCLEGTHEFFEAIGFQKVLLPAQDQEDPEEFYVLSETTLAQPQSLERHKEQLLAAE
Experimental: The NMR samples contained 200–800 µM of ^15N,^13C- or ^15N-labeled protein in 50 mM NaKPi pH 6.5, 90%/10% (v/v) H2O/D2O. ^13C(aliphatic)-COSY and TOCSY experiments were measured in the same buffer with 100% D2O. All spectra were recorded at 25 °C on a 700 MHz Bruker Ultrashield NMR spectrometer equipped with a 5 mm TCI (^1H/^13C/^15N) triple resonance cryoprobe head. Spectra were processed with Topspin 3.5 (Bruker) and analyzed with CARA [42].
To 362 μM ^15N-labeled UBXD1-PUB, the p97-C10 or p97-C13 peptides were added stepwise to a final concentration of 1.1 mM. For the titration of the phosphorylated p97-C13-pY^805 peptide to the PUB domain, the protein concentration was 270 µM, and the peptide was titrated to a final concentration of 1.2 mM. After each addition, the ^1H,^15N-HSQC spectrum was recorded.
The chemical shift perturbation Δδtotal was calculated from the ^1H- and ^15N-shifts according to Equation (1) using the spectra with no peptide and the highest concentration of peptide, where ΔδN and ΔδH represent the chemical shift perturbation value of the amide nitrogen and proton, respectively:(1) Δδtotal=(ΔδH)^2+(0.154⋅ΔδN)^2.

UBXD1 PUB domain = target: T2, UBXD1 PUB domain (Homo sapiens, UniProt Q9BZV1); experiment: p97-PIM peptide binding to UBXD1 PUB domain (summary); conditions: isolated p97-PIM peptide
T2 construct: N-terminal hexahistidine-tagged UBXD1-PUB (150–264) was cloned into a pET28a expression vector; hexahistidine (His6) (N); made in house
T2 sequence (Q9BZV1 150-264): T1 sequence (Q9BZV1 150-264)
Experimental: Fluorescence anisotropy measurements (excitation: 495 nm; emission 518 nm) were carried out on a JASCO FP-8300 fluorescence spectrometer in 50 mM NaKPi, pH 6.5 at 25 °C, titrating PUB constructs to 5,6-FAM labeled p97-C10 peptide (100 nM). All titrations were performed in triplicate. Binding curves of the averaged data were fitted with GraphPad Prism 5.0 (GraphPad) using the quadratic binding equation for a one-site specific binding model:(3) r=r0+rmax⋅(F+x+KD)−(F+x+KD)^2−4⋅x⋅F/2⋅F, with r = anisotropy, r0 = anisotropy without protein, rmax = maximum anisotropy, F = fluorescent probe (labeled peptide or protein) concentration, x = titrant protein concentration, and KD = dissociation constant.
ITC measurements were performed in triplicate with a MicroCal iTC2000 (Malvern Pananalytical). UBXD1-PUB (100 µM) was titrated with 1 mM of p97-C10 peptide in 50 mM NaKPi buffer (pH 6.5) at 25 °C in 40 steps with a volume of 0.5 µL for the first 9 steps and 1.0 µL for the remaining ones.

HOIP PUB domain = conditions: ref [25],[27],[34]; cited from earlier work
From the text: (§1) UBXD1, PNGase, and HOIP PUB domains bind the p97-PIM peptide with KDs in the low µM range and a 1:1 stoichiometry (Table 2, Figure 4, Figure 5 and Figure S2, and [25, 27, 34]). The KD of HOIP for the OTULIN- and SPATA2-PIMs, however, is 50 times lower and lies in the nM range, which maybe reflects that these complexes either operate at lower concentrations in the cell or a have a lesser need to exchange their binding partners. p97, on the other hand, might need to swap cofactors more readily either within one pathway or to switch between different pathways.

PNGase PUB domain = conditions: ref [25],[27],[34]; cited from earlier work
From the text: as §1

SVYTEDNDDDLYG [p97-C13]
chemical shift perturbations (CSPs) Δδtotal (UBXD1-PUB; 362 μM 15N-UBXD1-PUB, peptide to 1.1 mM, resonances between second and fourth α-helix): > 0.2 ppm

SVYTEDNDDDLpYG [phosphorylated p97-C13]
binding in 15N-HSQC NMR titration (UBXD1-PUB): no
binding in 15N-HSQC NMR titration (UBXD1-PUB; listed as p97-C13 peptide carrying a phosphorylated pY805): did not show any binding

p97-PIM peptide: PUB interacting motif (PIM) in the p97 C-terminus (TEDNDDDLYG)
KD of PUB domain for p97-PIM peptide (UBXD1 PUB domain): low µM range
KD of PUB domain for p97-PIM peptide (HOIP PUB domain): low µM range
KD of PUB domain for p97-PIM peptide (PNGase PUB domain): low µM range
